Results taken from ChEMBL document CHEMBL1629516, “Novel insights for dihydroorotate dehydrogenase class 1A inhibitors discovery” (Eur J Med Chem, 2010).
Calls of active or inactive are those of the source. The calls are words filed in the database; no cut-off is given here.

Columns and labels:
Trypanosoma cruzi = test: (§1) Inhibition of Trypanosoma cruzi dihydroorotate dehydrogenase by isothermal titration calorimetry
[1] = Inhibition of Leishmania major dihydroorotate dehydrogenase by isothermal titration calorimetry; conditions: read-out: Ki(app)
[2] = as §1; conditions: read-out: Ki(app)

| Structure (SMILES) | Ki(app) (Trypanosoma cruzi) | Ki [1] | Ki [2] |
| --- | --- | --- | --- |
| Nc1c(C(=O)O)[nH]c(=O)[nH]c1=O |  | 82.8 µM | 94.8 µM |
| O=C(O)c1cc(=O)[nH]c(=O)[nH]1 [OROTIC ACID] |  |  | 72.2 µM |
| O=C(O)c1nc(=O)[nH]c(=O)[nH]1 [OTERACIL] |  |  | 21.7 µM |
| O=C(O)c1[nH]c(=O)[nH]c(=O)c1F |  |  | 19.3 µM |

Continued, values first:

| Ki(app) (Trypanosoma cruzi) | Ki [1] | Ki [2] | Structure (SMILES) |
| --- | --- | --- | --- |
| inactive |  |  | O=c1[nH]c(=O)c2nn[nH]c2[nH]1 |
| inactive |  |  | CCCCOC(=O)c1cc(O)nc(O)n1 |
|  | 213 µM | 139 µM | O=C(O)c1[nH]c(=O)[nH]c(=O)c1[N+](=O)[O-] |
| inactive |  |  | Oc1nc(O)c2nc(O)[nH]c2n1 |
|  |  | 300 µM | CN(C)Cc1c(C(=O)O)[nH]c(=O)[nH]c1=O |
| inactive |  |  | O=C1OCc2c1[nH]c(=O)[nH]c2=O |
